Test results taken from patent publication US8022068B2, “Substituted piperidines as renin inhibitors” (Novartis AG, priority 2008, dated 2011).

Biological target: T1, renin (Homo sapiens, UniProt P00797)
T1 construct: This test measures the formation of angiotensin I in human plasma; from tissue; host or cells: human plasma
T1 sequence (P00797 67-406): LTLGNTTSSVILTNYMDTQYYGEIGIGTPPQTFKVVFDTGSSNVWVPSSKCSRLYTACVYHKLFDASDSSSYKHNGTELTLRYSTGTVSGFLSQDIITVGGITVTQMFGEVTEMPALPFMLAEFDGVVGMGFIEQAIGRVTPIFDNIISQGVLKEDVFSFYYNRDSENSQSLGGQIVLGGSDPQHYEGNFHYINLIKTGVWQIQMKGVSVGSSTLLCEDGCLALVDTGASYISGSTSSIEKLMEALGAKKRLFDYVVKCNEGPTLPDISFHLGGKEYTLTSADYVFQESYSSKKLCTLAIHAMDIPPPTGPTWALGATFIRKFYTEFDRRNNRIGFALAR
Experiment: formation of angiotensin I in human plasma (Nussberger et al.), radioimmunoassay
Type: biochemical
Details: angiotensin I determined by radioimmunoassay, read-out: IC50, inhibition of the formation of angiotensin I
Procedure: The effect of renin inhibitors is detected inter alia experimentally by means of in vitro tests where the reduction in the formation of angiotensin I is measured in various systems (human plasma, purified human renin together with synthetic or natural renin substrate). The following in vitro test of Nussberger et al. (1987) J. Cardiovascular Pharmacol., Vol. 9, pp. 39-44, is used inter alia. This test measures the formation of angiotensin I in human plasma. The amount of angiotensin I formed is determined in a subsequent radioimmunoassay. The effect of inhibitors on the formation of angiotensin I is tested in this system by adding various concentrations of these substances. The IC50 is defined as the concentration of the particular inhibitor which reduces the formation of angiotensin I by 50%. The compounds of the present invention show inhibitory effects in the in vitro systems at minimal concentrations of about 10^−6 mol/l to about 10^−10 mol/l.

| IC50 | SMILES |
| --- | --- |
| 0.1 to 10 nM | COCCCN1CCOc2ccc(CO[C@H]3CN[C@@H](Cc4nncn4C)C[C@@H]3c3ccc(COC[C@@H](C)COC)cc3)cc21 [Example 8, 6-[(3R,4R,6R)-4-[4-((S)-3-Methoxy-2-methyl-propoxymethyl)-phenyl]-6-(4-methyl-4H-[1,2,4]triazol-3-ylmethyl)-piperidin-3-yloxymethyl]-4-(3-methoxy-propyl)-3,4-dihydro-2H-benzo[1,4]oxazine] |
| 0.1 to 10 nM | COCCCN1CCOc2ccc(CO[C@H]3CN[C@@H](CN4CCOCC4)C[C@@H]3c3ccc(COC[C@@H](C)COC)cc3)cc21 [Example 10, 6-{(3R,4R,6R)-4-[4-((S)-3-Methoxy-2-methyl-propoxymethyl)-phenyl]-6-morpholin-4-ylmethyl-piperidin-3-yloxymethyl}-4-(3-methoxy-propyl)-3,4-dihydro-2H-benzo[1,4]oxazine] |
